Experimental data from patent publication US20200009085A1, “Methods For Treating Ovarian Cancer” (RADIUS HEALTH, INC., priority 2016, published 2020).
Entries after “also recorded” stand apart in the source; their conditions may differ. Structures can show the parent of a compound that is named as a salt.

How the values were obtained:
[1] = tested on: OV-10-0050 ovarian cancer tumor; assay: In vivo xenograft PDX model (OV-10-0050 ovarian patient derived xenograft)
Protocol: RAD1901 used in the examples below was (6R)-6-(2-(N-(4-(2-(ethylamino)ethyl)benzyl)-N-ethylamino)-4-methoxyphenyl)-5,6,7,8-tetrahydronaphthalen-2-ol dihydrochloride, manufactured by IRIX Pharmaceuticals, Inc. (Florence, S.C.). RAD1901 was stored as a dry powder, formulated for use as a homogenous suspension in 0.5% (w/v) methylcellulose in deionized water, and for animal models was administered p.o.
All mice were housed in pathogen-free housing in individually ventilated cages with sterilized and dust-free bedding cobs, access to sterilized food and water ad libitum, under a light dark cycle (12-14 hour circadian cycle of artificial light) and controlled room temperature and humidity.
The PDX shown in FIG. 1 was the OV-10-0050 ovarian cancer tumor, derived from an ovarian adenocarcinoma from a person. The tumor was grade 3 and positive for cytokeratin indicating an ovarian epithelial type. The tumor also stained positive for ER and an ER target gene (progesterone receptor). The OV-10-0050 PDX model was established from viable human tumor tissue that had been serially passaged in animals (female Balb/c nude mice) a limited number of times to maintain tumor heterogeneity. […]
Tumor sizes were measured twice per week in two dimensions using a caliper, and the volume was expressed in mm^3 using the formula: V=0.5 a×b^2 where a and b were the long and short diameters of the tumor, respectively. […]
TGI was calculated for each group using the formula: TGI (%)=[1−(Ti−T0)/(Vi−V0)]×100; Ti is the average tumor volume of a treatment group on a given day, T0 is the average tumor volume of the treatment group on the day of grouping, Vi is the average tumor volume of the vehicle control group on a given day with Ti, and V0 is the average tumor volume of the vehicle group on the day of grouping. […]
A one-way ANOVA was performed to compare tumor volume among RAD1901-treted groups compared to the vehicle-treated group on day 32 of treatment. All data were analyzed using Graphpad Prism. p<0.05 was considered to be statistically significant.

[2] = tested on: breast cancer xenograft models; conditions: regardless of ESR1 mutation status and prior endocrine therapy; cited from earlier work
ERα = target: T1, ERα (Homo sapiens, UniProt P03372); conditions: ERα versus estrogen receptor beta (ERβ); cited from earlier work
T1 sequence (P03372 1-595): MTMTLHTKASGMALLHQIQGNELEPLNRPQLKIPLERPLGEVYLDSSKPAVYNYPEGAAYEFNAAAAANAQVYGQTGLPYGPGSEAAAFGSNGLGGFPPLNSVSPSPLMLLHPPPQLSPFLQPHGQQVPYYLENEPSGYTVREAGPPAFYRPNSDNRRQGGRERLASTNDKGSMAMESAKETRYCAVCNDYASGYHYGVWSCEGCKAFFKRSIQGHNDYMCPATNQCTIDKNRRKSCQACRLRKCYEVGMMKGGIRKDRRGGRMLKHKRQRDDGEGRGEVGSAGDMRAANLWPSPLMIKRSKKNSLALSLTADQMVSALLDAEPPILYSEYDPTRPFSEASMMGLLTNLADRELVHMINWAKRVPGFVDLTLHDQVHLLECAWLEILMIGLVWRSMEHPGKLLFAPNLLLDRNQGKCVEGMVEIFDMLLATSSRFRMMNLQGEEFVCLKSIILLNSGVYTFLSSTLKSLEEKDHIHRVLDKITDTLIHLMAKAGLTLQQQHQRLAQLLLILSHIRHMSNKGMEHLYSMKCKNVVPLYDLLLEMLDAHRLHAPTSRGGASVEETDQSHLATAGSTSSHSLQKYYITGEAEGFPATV

CCNCCc1ccc(CN(CC)c2cc(OC)ccc2[C@@H]2CCc3cc(O)ccc3C2)cc1 [RAD1901, (6R)-6-(2-(N-(4-(2-(ethylamino)ethyl)benzyl)-N-ethylamino)-4-methoxyphenyl)-5,6,7,8-tetrahydronaphthalen-2-ol dihydrochloride]
tolerability (reason the group was taken down) ([1]; 60 mg/kg p.o. q.d., Day 32, tumor-bearing Balb/c nude mice): weakness and heavy body weight loss
tumor regression ([1]; OV-10-0050 PDX, 30 mg/kg and 60 mg/kg p.o. daily, individual tumor sizes on Day 32, FIG. 2, dihydrochloride): drive tumor regression; also recorded: tumor regressions in some animals
tumor growth inhibition (TGI) ([1]; OV-10-0050 PDX, RAD1901 30 or 60 mg/kg p.o. q.d., day 32, approximately equal activity at both dose groups, FIG. 1): about 80%
tumor growth inhibition and/or regression [2]: inhibit tumor growth and/or drive tumor regression
binding preference ERα versus ERβ (ERα): preferentially bind ERα
